# In US20170283426A1, “COMPOUNDS FOR THE INHIBITION OF CYCLOPHILINS AND USES THEREOF” (Merck Patent GmbH, priority 2016, published 2017):
# Tests used:
# CypD [1] = target: T1, CypD (Homo sapiens, UniProt P30405); test: CypD binding assay, competition Fluorescence-Polarisation with fluorescine labelled cyclosporin
# Method: The binding capacity of the compounds were measured using a competition Fluorescence-Polarisation based assay with fluorescine labelled cyclosporin. The protocol used was adapted from Hausch et al, Med Chem lett 2010, p 536.
# CypD [2] = target: T1, CypD; test: SPR binding; details: SPR surface; read-out: SPR CypD (KDss)
# Source text: Binding was confirmed on an SPR surface using a protocol adapted from Mori et al., J. Biomolecular Screening, 2009 p 419.
# T1 sequence (P30405 30-207): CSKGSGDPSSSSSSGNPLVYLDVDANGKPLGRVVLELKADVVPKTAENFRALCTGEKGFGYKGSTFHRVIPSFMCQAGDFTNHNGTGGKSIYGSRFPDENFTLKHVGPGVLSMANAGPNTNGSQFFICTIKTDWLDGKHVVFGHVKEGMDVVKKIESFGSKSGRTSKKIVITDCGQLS
IC50 (CypD [1]) [µM],Kd (CypD [2]) [µM],SMILES
< 10,< 10,"O=C(NCCc1ccc2c(c1)[C@H]1C[C@@H](N2)[C@H](O)CO1)C(=O)N[C@@H]1C[C@H]2CC[C@@H]1C2 [Compound 2, N-Bicyclo[2.2.1]hept-2-yl-N′-[2-((1R,9R,10S)-10-hydroxy-12-oxa-8-aza-tricyclo[7.3.1.02,7]trideca-2,4,6-trien-4-yl)-ethyl]-oxalamide]"
< 10,< 10,"O=C(NCCc1ccccc1)C(=O)NCCc1ccc2c(c1)[C@H]1C[C@@H](N2)[C@H](O)CO1 [Compound 3, N1-(2-((2R,3S,6R)-3-hydroxy-2,3,4,6-tetrahydro-1H-2,6-methanobenzo[c][1,5]oxazocin-8-yl)ethyl)-N2-phenethyloxalamide]"
< 10,< 10,"CC(C)CNC(=O)C(=O)NCCc1ccc2c(c1)[C@H]1C[C@@H](N2)[C@H](O)CO1 [Compound 4, N-1-(2-((2R,3S,6R)-3-hydroxy-2,3,4,6-tetrahydro-1H-2,6-methanobenzo[c][1,5]oxazocin-8-yl)ethyl)-N2-isobutyloxalamide]"
< 10,< 10,"O=C(NCCc1cccc(C(F)(F)F)c1)C(=O)NCCc1ccc2c(c1)[C@H]1C[C@@H](N2)[C@H](O)CO1 [Compound 5, N1-(2-((2R,3S,6R)-3-hydroxy-2,3,4,6-tetrahydro-1H-2,6-methanobenzo[c][1,5]oxazocin-8-yl)ethyl)-N2-(3-(trifluoromethyl)phenethyl)oxalamide]"
10 to 100,10 to 100,"CSc1ccccc1[C@H]1CCCN1C(=O)C(=O)NCCc1ccc2c(c1)[C@H]1C[C@@H](N2)[C@H](O)CO1 [Compound 6, N-[2-((1R,9R,10S)-10-hydroxy-12-oxa-8-aza-tricyclo[7.3.1.02,7]trideca-2(7),3,5-trien-4-yl)-ethyl]-2-[(R)-2-(2-methylsulfanyl-phenyl)-pyrrolidin-1-yl]-2-oxo-acetamide]"
10 to 100,10 to 100,"O=C(NCCc1ccccc1)C(=O)NCCc1ccc2c(c1)[C@@H]1C[C@H](N2)[C@H](O)CO1 [Compound 8, N1-(2-((2S,3S,6S)-3-hydroxy-2,3,4,6-tetrahydro-1H-2,6-methanobenzo[c][1,5]oxazocin-8-yl)ethyl)-N2-phenethyloxalamide]"
10 to 100,10 to 100,"CC(C)(C)CNC(=O)C(=O)NCCc1ccc2c(c1)[C@@H]1C[C@H](N2)[C@H](O)CO1 [Compound 10, N1-(2-((2S,3S,6S)-3-hydroxy-2,3,4,6-tetrahydro-1H-2,6-methanobenzo[c][1,5]oxazocin-8-yl)ethyl)-N2-neopentyloxalamide]"
10 to 100,10 to 100,"O=C(NCCc1ccc2c(c1)[C@H]1C[C@@H](N2)[C@H](O)CO1)C(=O)NCc1cccc(C(F)(F)F)c1 [Compound 11, N1-(2-((2R,3S,6R)-3-hydroxy-2,3,4,6-tetrahydro-1H-2,6-methanobenzo[c][1,5]oxazocin-8-yl)ethyl)-N2-(3-(trifluoromethyl)benzyl)oxalamide]"
10 to 100,10 to 100,"O=C(NCCc1cccc(C(F)(F)F)c1)C(=O)NCCc1ccc2c(c1)[C@@H]1C[C@H](N2)[C@H](O)CO1 [Compound 12, N1-(2-((2S,3S,6S)-3-hydroxy-2,3,4,6-tetrahydro-1H-2,6-methanobenzo[c][1,5]oxazocin-8-yl)ethyl)-N2-(3-(trifluoromethyl)phenethyl)oxalamide]"
10 to 100,10 to 100,"O=C(NCc1ccc2c(c1)[C@@H]1C[C@H](N2)[C@H](O)CO1)C(=O)NC1CCCC1 [Compound 13, N-Cyclopentyl-N′-((1S,9S,10S)-10-hydroxy-12-oxa-8-aza-tricyclo[7.3.1.02,7]trideca-2,4,6-trien-4-ylmethyl)-oxalamide]"
